Measurements as given in patent publication US5206382A, “Indole derivatives, pharmaceutical compositions and methods of treating neurological and psychiatric disorders” (Fidia Georgetown Institute for the Neurosciences, priority 1991, dated 1993).
Read-outs that look alike come from different tables or passages of the source.

Legend:
Sprague Dawley rats = assay: Elevated X maze test; type: in vivo, Sprague Dawley rat; settings: for Entries in open arms, test after 10 min injection / Entries in open arms, test after 20 min injection / Entries in open arms, test after 30 min injection: rats; for anxiolytic potency ranking / behavioral output of rats in the elevated X maze test: in words
Procedure: The elevated X maze is a behavioral test to detect anxiolytic drugs in rodents. […] The plus-maze consists of two open arms (43×8 cm) and two similarly sized enclosed arms with 9 cm high walls, arranged so that the arms of the same type are opposite each other. There is a central square of 8 cm. The apparatus is elevated to a height of 10 cm and each arm is divided into 3 squares.
Sprague Dawley rats weighing 200-250 gr. were housed in a room with a 12 hour light: 12 hour dark cycle and were allowed free access to food and water. After an i.v. injection of different indole derivatives, the rats were kept separated for 10, 20 or 30 minutes before testing. The testing period commenced when each animal was placed onto the central square of the maze. The number of entries in each arm was then recorded for 5 minutes. The maze was cleaned with water after each trial. The number of entries in the open arms provided a measure of anxiolytic activity of the drugs.

[1] = Sedation and ataxia in rats; settings: rat, in vivo, ratio of doses, read-out: anxiolytic doses lower than the doses that produce sedation and ataxia
MBR [2] = settings: in words; cited from earlier work
MBR [3] = settings: in words; cited from earlier work; remark: listed apart in the source
rats = settings: cited from earlier work
GABAA receptor = settings: in words; cited from earlier work
[4] = molecular target: T1, MBR (mitochondrial benzodiazepine recognition site) (Rattus norvegicus, UniProt P16257); assay: Displacement of ^3 H-PK11195 from mitochondrial BZD recognition site (MBR); type: binding, Sprague Dawley rat; settings: for IC50: displacement of 1 nM ^3 H-PK11195, rat mitochondria, range in parentheses; for ^3 H-PK11195 / ^3 H-RO5-4864: ratio of the two IC50 values
T1 construct: Brain and adrenal glands were removed and homogenized with Polytron; from tissue; host or cells: mitochondrial fraction of Sprague Dawley rat brain and adrenal glands
Procedure: (§1) Mitochondrial Preparation: Sprague Dawley rats (200-250 gr.) were killed by decapitation. Brain and adrenal glands were removed and homogenized with Polytron for 15 minutes in ice cold buffer (10 mM Na/KPO4, 0.32M sucrose, pH 7.4). The homogenate was centrifuged for 15 minutes at 6,500 xg at 4° C. The resulting supernatant was centrifuged for 15 minutes at […] at 4° C. The pellet was suspended in buffer (20 times) by gentle homogenization and centrifuged at 10,000 xg at 4° C. for 15 minutes. The washed mitochondrial pellet was stored at -70° C.
(§2) For the binding assay the mitochondrial fraction was diluted with 50 mM Na/KPO4 buffer (pH 7.4) to give a final protein concentration of […] in 100 μl buffer. This suspension was incubated with 1 nM of ^3 H PK-11195 or ^3 H RO 5-4864 (50 μl) with or without 10/μM unlabeled PK-11195 or RO 5-4864 to assess the extent of total and non-specific binding. Different amounts of indole derivatives were added to the incubation medium in a volume of 50 μl. After incubation for 60 minutes at 4° C., samples were filtered and the radioactivity was measured in a scintillation counter.

[5] = molecular target: ^3 H-GABA binding (crude synaptic membrane); assay: ^3 H-GABA binding, crude synaptic membranes; parameters: species or system Sprague Dawley rat; settings: 10 nM ^3 H-GABA, rat cerebellum membranes
Procedure: (§3) Crude Synaptic Membrane Preparation: Sprague Dawley rats (200-250 gr.) were killed by decapitation. The cerebella were removed and incubated for 20 minutes in ice cold double distilled water after homogenization with Polytron. The homogenate was centrifuged at 18,000 xg at 4° C. for 10 minutes. The pellet was suspended in ice-cold buffer 50 mM Na/KPO4(pH 7.4) and centrifuged at 18,000 xg at 4° C. for 10 minutes. After two other centrifugations, the membranes were suspended in 5 ml of buffer and the proteins were measured.
(§4) The membranes were diluted with 50 mM Na/KPO4 buffer (pH 7.4) to a concentration of 150 μg of protein/ml, and 150 μl aliquots of the suspension were incubated with 50 μl of the different ligands to be tested: ^3 H-ZOLPIDEM(2 nM), ^3 H-FLUMAZENIL (2 nM), ^3 H-GABA(10 nM), ^3 H-MK 801(5 nM), ^3 H-KETANSERIN(1 nM), ^3 H-GLYCINE(20 nM), ^3 H-SPIPERONE(1 nM), ^3 H-AMPA(10 nM), ^3 H-3-PPP(1 nM), and ^3 H-NALOXONE(1 nM). Non-specific binding was assessed by displacing with 10 to 1000/μM of cold ligand. The different indole derivatives were added in a volume of 50 μl in a concentration varying from 10^-9 to 10^-3 M. The results are reported in Table I hereinbelow.

[6] = molecular target: T2, ^3 H-ZOLPIDEM binding (crude synaptic membrane) (Rattus norvegicus, UniProt P18508+P62813); assay: ^3 H-ZOLPIDEM binding, crude synaptic membranes; parameters: species or system Sprague Dawley rat; settings: 2 nM ^3 H-ZOLPIDEM, rat cerebellum membranes
T2 construct: from tissue; host or cells: crude synaptic membranes of Sprague Dawley rat cerebellum
T2 sequence (P62813 28-455): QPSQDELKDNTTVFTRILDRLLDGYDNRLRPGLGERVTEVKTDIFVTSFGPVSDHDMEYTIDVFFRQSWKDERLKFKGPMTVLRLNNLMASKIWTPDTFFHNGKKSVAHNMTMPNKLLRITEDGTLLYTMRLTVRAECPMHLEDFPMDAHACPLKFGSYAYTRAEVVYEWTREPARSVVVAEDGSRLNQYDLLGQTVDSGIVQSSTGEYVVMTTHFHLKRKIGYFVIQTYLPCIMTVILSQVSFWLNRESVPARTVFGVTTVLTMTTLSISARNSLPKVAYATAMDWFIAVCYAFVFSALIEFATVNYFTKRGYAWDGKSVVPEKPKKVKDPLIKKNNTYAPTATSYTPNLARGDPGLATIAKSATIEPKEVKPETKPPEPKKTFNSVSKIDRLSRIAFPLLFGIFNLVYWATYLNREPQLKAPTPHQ
T2 sequence (P18508 39-466): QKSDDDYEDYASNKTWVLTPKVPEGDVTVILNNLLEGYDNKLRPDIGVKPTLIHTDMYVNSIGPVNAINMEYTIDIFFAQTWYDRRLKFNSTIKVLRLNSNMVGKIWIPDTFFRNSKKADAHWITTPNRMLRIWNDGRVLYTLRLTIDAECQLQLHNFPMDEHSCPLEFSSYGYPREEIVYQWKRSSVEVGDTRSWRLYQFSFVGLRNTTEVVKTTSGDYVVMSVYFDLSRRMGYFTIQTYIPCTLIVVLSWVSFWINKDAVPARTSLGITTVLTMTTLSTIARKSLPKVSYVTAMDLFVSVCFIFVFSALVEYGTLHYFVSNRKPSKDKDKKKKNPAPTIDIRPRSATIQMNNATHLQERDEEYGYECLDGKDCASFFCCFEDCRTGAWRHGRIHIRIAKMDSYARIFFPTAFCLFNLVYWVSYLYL
Procedure: as §3, §4

[7] = molecular target: T3, BZD binding site located on the GABAA receptor (Rattus norvegicus, UniProt P18508+P62813); assay: ^3 H-FLUMAZENIL binding, crude synaptic membranes; parameters: species or system Sprague Dawley rat; settings: 2 nM ^3 H-FLUMAZENIL, rat cerebellum membranes
T3 construct: The cerebella were removed and incubated for 20 minutes in ice cold double distilled water; from tissue; host or cells: crude synaptic membranes of Sprague Dawley rat cerebellum
T3 sequence (P62813 28-455): as the sequence (P62813 28-455) above
T3 sequence (P18508 39-466): as the sequence (P18508 39-466) above
Procedure: as §3
as §4, with “ligand.” for “ligand. The different indole derivatives were added in a volume of 50 μl in a concentration varying from 10^-9 to 10^-3 M. The results are reported in Table I hereinbelow.”

[8] = molecular target: T1, MBR (mitochondrial benzodiazepine recognition site); assay: Displacement of ^3 H-RO5-4864 from mitochondrial BZD recognition site (MBR); type: binding, Sprague Dawley rat; settings: displacement of 1 nM ^3 H-RO5-4864, rat mitochondria; range in parentheses
Procedure: as §1, §2

[9] = test system: mitochondrial pregnenolone formation, C6-2B glioma cells; assay: Pregnenolone formation in glial mitochondria (C6-2B glioma cells); type: biochemical; settings: for Effective concentration, maximal / EC50: C6 glial cell mitochondria, 15 minutes at 37° C.; for EC50: read-out: Effective concentration, 50%; for Stimulation %: pregnenolone formation, increase over the control
Procedure: The mixture was preincubated for 5 minutes at 37° C. The incubation mixture was extracted with 5 ml chloroform/methanol (2:1, vol/vol), and the organic phase was evaporated to dryness. Pregnenolone was measured by a specific radioimmunoassay using an antibody obtained from Radioassay Systems Laboratories, Carson, Calif.

GABAA receptors = settings: in words; cited from earlier work

SMILES | behavioral output of rats in the elevated X maze test (Sprague Dawley rats) | IC50 [4] [nM] | ^3 H-PK11195 / ^3 H-RO5-4864 [4] | IC50 [5] [nM] | IC50 [7] [nM] | IC50 [8] [nM] | Entries in open arms, test after 10 min injection (Sprague Dawley rats; 20 mg/kg i.v.) | Entries in open arms, test after 20 min injection (Sprague Dawley rats; 20 mg/kg i.v.) | Entries in open arms, test after 30 min injection (Sprague Dawley rats; 20 mg/kg i.v.) | also measured
CCCCCCN(CCCCCC)C(=O)Cc1c(-c2ccc(Cl)cc2)[nH]c2ccc(Cl)cc12 [compound 43] | increase the behavioral output | – | – | – | – | – | – | – | – | Entries in open arms, test after 10 min injection (Sprague Dawley rats; 0.5 mg/kg i.v.): 4; Entries in open arms, test after 20 min injection (Sprague Dawley rats; 0.5 mg/kg i.v.): 2; Entries in open arms, test after 30 min injection (Sprague Dawley rats; 0.5 mg/kg i.v.): 1; anxiolytic potency ranking (Sprague Dawley rats): most potent anxiolytic drugs; selectivity ratio [1]: 100 to 500
CCCN(CCC)C(=O)Cc1c(-c2ccc(Cl)cc2)nc2ccc(Cl)cn12 [Alpidem] | – | – | – | – | – | – | – | – | – | cholesterol influx into mitochondria and formation of pregnenolone (MBR [2]): facilitates cholesterol influx into mitochondria and the formation of pregnenolone; affinity for the MBR (MBR [3]): high affinity; conflict response (rats; dose-related, reduced by both PK-11195 and Flumazenil): anticonflict (anxiolytic) action; binding to the GABAA receptor / BZD recognition sites on GABAA receptors (GABAA receptor): high affinity
CCCN(CCC)C(=O)Cc1c(-c2ccc(Cl)cc2)[nH]c2ccccc12 [compound 5] | – | 28.5 | 1.1 | > 1000 | > 1000 | 25.5 | – | – | – | IC50 [6]: > 1000 nM
CCCN(CCC)C(=O)Cc1c(-c2cccc(Cl)c2)[nH]c2ccccc12 [compound 21] | increase the behavioral output | 100 | 1.2 | > 1000 | > 1000 | 80 | 2 | 4 | 0 | –
CCCN(CCC)C(=O)Cc1c(-c2ccc(F)cc2)[nH]c2ccccc12 [compound 20] | increase the behavioral output | 100 | 2 | > 1000 | > 1000 | 50 | 3 | 2 | 6 | Effective concentration, maximal [9]: 10^-9 M; EC50 [9]: 0.33 nM; Stimulation % [9]: 183%
C[C@]12CC[C@@H](O)C[C@@H]1CC[C@@H]1[C@@H]2CC[C@]2(C)[C@@H](C(=O)CO)CC[C@@H]12 [3α,21-dihydroxy-5α-pregnan-20-one(THDOC), 3α,21-dihydroxy-5α-pregnan-20-one] | – | – | – | – | – | – | – | – | – | modulation of GABA action (GABAA receptors): positively modulate
CC(=O)[C@H]1CC[C@H]2[C@@H]3CC[C@H]4C[C@H](O)CC[C@]4(C)[C@H]3CC[C@]12C [3-α-hydroxy-5α-pregnan-20-one(3-αOH-DHP), 3-α-hydroxy-5α-pregnan-20-one] | – | – | – | – | – | – | – | – | – | modulation of GABA action (GABAA receptors): positively modulate
CCCN(CCC)C(=O)Cc1c(-c2ccccc2)[nH]c2ccccc12 [Compound No. 2] | increase the behavioral output | 32.5 | 1.4 | > 1000 | > 1000 | 22.5 | 0 | 0 | 0 | Entries in open arms, test after 10 min injection (Sprague Dawley rats; 200 mg/kg i.v.): 4; Entries in open arms, test after 20 min injection (Sprague Dawley rats; 200 mg/kg i.v.): 0; Entries in open arms, test after 30 min injection (Sprague Dawley rats; 200 mg/kg i.v.): 0; Effective concentration, maximal [9]: 10^-9 M; EC50 [9]: 0.33 nM; Stimulation % [9]: 200%; IC50 [6]: > 1000 nM
CN1C(=O)CN=C(c2ccc(Cl)cc2)c2cc(Cl)ccc21 [4-Cl-Diazepam] | – | – | – | – | – | – | – | – | – | cholesterol influx into mitochondria and formation of pregnenolone (MBR [2]): facilitates cholesterol influx into mitochondria and the formation of pregnenolone; affinity for the MBR (MBR [3]): high affinity; conflict response (rats; rats, small doses, partially resistant to Flumazenil, sensitive to PK-11195): proconflict response; binding to the GABAA receptor / BZD recognition sites on GABAA receptors (GABAA receptor): binds to the GABAA receptor
CCCCCCN(CCCCCC)C(=O)Cc1c(-c2ccc(F)cc2)[nH]c2ccccc12 [compound 27] | increase the behavioral output | 18 | 0.9 | > 1000 | > 1000 | 20 | – | – | – | Entries in open arms, test after 10 min injection (Sprague Dawley rats; 0.5 mg/kg i.v.): 5; Entries in open arms, test after 20 min injection (Sprague Dawley rats; 0.5 mg/kg i.v.): 2; Entries in open arms, test after 30 min injection (Sprague Dawley rats; 0.5 mg/kg i.v.): 1; anxiolytic potency ranking (Sprague Dawley rats): most potent anxiolytic drugs; Effective concentration, maximal [9]: 10^-7 M; EC50 [9]: 3.3 nM; Stimulation % [9]: 300%; selectivity ratio [1]: 100 to 500
CC(=O)[C@H]1CC[C@H]2[C@@H]3CC=C4C[C@@H](OS(=O)(=O)O)CC[C@]4(C)[C@H]3CC[C@]12C [pregnenolone sulphate] | – | – | – | – | – | – | – | – | – | modulation of GABA action (GABAA receptors): negatively modulate
CCCCCCNC(=O)Cc1c(-c2ccccc2)[nH]c2ccccc12 [Compound No. 13] | increase the behavioral output | 57.5 | 1.8 | > 1000 | > 1000 | 32.5 | 2 | 2 | 3 | IC50 [6]: > 1000 nM
